Measurements from patent publication US20230131025A1, “QUINOLYL PHOSPHINE OXIDE COMPOUND, AND COMPOSITION AND APPLICATION THEREOF” (Betta Pharmaceuticals Co., Ltd., priority 2020, published 2023).

What was measured:
Ba/F3 EGFR WT = Ba/F3 EGFR WT (Homo sapiens, UniProt P00533); assay: Cell proliferation experiment (CellTiter Glo, 72 hours); type: cell-based; details: read-out: BaF3 EGFR WT IC50
Summary of the method: (§1)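 Ba/F3 cells overexpressing EGFR Δ19del/T790M/C797S or EGFR WT were seeded at 2000 or 3000 cells/well and exposed 72 h to 9 compound concentrations (3-fold, top 10000 or 1111 nM final, 0.1% DMSO). CellTiter-Glo luminescence gave survival inhibition versus controls; IC50 from nonlinear fit.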

Ba/F3-Δ19del/T790M/C797S = Ba/F3-Δ19del/T790M/C797S (Homo sapiens, UniProt P00533, T790M/C797S, cells depend on it, form not given); assay: as above; type: cell-based; details: read-out: Ba/F3/EGFR Δ19del/T790M/C797S IC50
Summary of the method: as §1

[1] = In vivo safety experiment (body weight, tolerance)
Procedure: The safety evaluation of the drug was carried out in BALB/c nude mice. […] They were fed in an SPF environment, and each cage was individually ventilated (5 mice per cage). All cages, bedding and water were disinfected prior to use. Mice were purchased from Viton Lever and were allowed to acclimate in the laboratory. Mice were administered orally QD.

Ba/F3-Δ19del/T790M/C797S, sequence (P00533 with tags, fused parts or gaps DEL746-750/T790M/C797S, form open): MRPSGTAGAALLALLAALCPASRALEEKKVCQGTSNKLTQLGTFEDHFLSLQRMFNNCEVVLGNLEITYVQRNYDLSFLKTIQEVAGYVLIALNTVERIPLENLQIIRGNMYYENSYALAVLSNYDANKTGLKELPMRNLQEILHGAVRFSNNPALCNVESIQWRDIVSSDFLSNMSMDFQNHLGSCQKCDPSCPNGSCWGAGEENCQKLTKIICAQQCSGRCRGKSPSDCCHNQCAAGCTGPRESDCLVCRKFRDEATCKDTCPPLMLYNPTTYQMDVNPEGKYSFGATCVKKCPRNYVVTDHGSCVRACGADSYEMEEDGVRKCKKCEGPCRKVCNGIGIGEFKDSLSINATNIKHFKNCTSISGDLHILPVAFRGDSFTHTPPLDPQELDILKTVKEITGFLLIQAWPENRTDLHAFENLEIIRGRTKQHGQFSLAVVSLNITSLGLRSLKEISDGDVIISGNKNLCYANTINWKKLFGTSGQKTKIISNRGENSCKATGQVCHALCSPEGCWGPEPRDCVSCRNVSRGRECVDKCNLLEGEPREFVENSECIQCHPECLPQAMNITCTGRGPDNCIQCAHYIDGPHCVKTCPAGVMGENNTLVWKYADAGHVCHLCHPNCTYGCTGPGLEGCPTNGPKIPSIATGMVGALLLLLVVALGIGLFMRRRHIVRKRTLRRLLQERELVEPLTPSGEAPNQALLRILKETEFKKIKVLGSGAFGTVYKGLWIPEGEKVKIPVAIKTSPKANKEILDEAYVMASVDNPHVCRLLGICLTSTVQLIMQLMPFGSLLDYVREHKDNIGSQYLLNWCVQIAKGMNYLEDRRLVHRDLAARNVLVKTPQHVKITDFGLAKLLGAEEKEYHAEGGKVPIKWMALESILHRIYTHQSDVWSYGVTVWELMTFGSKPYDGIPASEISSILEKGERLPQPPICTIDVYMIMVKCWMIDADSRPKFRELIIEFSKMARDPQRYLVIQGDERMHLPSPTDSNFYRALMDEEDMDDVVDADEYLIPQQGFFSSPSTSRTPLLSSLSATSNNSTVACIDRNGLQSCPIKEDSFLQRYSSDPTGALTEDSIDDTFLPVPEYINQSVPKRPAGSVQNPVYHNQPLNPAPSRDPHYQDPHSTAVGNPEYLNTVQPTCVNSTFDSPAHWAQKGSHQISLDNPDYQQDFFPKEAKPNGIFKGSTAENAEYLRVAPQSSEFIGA
Ba/F3 EGFR WT, sequence (P00533 whole entry, stated change not applied): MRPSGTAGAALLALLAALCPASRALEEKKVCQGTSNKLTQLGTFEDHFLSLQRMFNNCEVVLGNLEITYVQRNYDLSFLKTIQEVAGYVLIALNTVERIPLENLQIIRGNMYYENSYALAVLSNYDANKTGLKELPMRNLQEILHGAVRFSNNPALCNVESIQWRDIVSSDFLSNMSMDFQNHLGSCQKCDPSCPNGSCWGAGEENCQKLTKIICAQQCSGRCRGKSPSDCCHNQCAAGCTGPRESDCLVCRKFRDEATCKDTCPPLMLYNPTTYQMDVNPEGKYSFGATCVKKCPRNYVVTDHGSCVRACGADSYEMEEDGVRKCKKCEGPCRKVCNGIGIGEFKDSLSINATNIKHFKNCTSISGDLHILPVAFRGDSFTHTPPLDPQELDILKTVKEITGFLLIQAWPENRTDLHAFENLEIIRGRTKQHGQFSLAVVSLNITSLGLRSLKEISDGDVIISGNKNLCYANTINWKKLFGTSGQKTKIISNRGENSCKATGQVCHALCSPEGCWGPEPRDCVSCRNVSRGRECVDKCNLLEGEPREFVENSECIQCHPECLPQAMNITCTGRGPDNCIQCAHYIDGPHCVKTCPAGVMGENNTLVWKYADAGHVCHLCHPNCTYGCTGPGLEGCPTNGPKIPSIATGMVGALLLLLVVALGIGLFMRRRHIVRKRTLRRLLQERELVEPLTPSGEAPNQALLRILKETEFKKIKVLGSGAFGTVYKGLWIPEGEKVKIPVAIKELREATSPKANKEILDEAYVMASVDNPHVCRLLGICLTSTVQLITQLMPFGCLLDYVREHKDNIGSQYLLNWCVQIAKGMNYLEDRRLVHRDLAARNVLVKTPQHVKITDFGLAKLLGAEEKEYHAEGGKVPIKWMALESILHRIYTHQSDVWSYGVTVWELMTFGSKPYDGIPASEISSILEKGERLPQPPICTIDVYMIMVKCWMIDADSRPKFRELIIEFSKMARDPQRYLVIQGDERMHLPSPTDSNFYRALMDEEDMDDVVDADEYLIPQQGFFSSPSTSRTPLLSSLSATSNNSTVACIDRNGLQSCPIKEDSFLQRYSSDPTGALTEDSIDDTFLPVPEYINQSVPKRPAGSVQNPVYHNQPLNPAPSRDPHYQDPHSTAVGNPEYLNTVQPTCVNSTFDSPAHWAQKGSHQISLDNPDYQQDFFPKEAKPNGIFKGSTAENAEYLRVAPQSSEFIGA

COc1cc(N2CCC(N3CCN(C)CC3)CC2)c(C)cc1Nc1ncc(Br)c(Nc2ccc3nc(C4CC4)ccc3c2P(C)(C)=O)n1 [Compound J-022, (6-((5-Bromo-2-((2-methoxy-5-methyl-4-(4-(4-methylpiperazin-1-yl)piperidin-1-yl)phenyl)amino)pyrimidin-4-yl)amino)-2-cyclopropylquinolin-5-yl)dimethylphosphine oxide]
GI50 (Ba/F3 EGFR WT): 151 nM
GI50 (Ba/F3-Δ19del/T790M/C797S): 6.8 nM
Body weight of mouse ([1]; 75 mg/kg/day oral QD, 0 days): 18.7 g
Body weight of mouse ([1]; 75 mg/kg/day oral QD, 2 days): 18.9 g
Body weight of mouse ([1]; 75 mg/kg/day oral QD, 4 days): 19.2 g
Body weight of mouse ([1]; 75 mg/kg/day oral QD, 6 days): 19.4 g
Body weight of mouse ([1]; 100 mg/kg/day oral QD, 0 days): 18.7 g
Body weight of mouse ([1]; 100 mg/kg/day oral QD, 2 days): 18.6 g
Body weight of mouse ([1]; 100 mg/kg/day oral QD, 4 days): 19.0 g
Body weight of mouse ([1]; 100 mg/kg/day oral QD, 6 days): 19.2 g
Body weight of mouse ([1]; 150 mg/kg/day oral QD, 0 days): 18.7 g
Body weight of mouse ([1]; 150 mg/kg/day oral QD, 2 days): 18.3 g
Body weight of mouse ([1]; 150 mg/kg/day oral QD, 4 days): 18.5 g
Body weight of mouse ([1]; 150 mg/kg/day oral QD, 6 days): 18.4 g
Change in the body weight of mice ([1]; 150 mg/kg/day oral, 7 days): no significant change
Tolerability ([1]; 150 mg/kg/day, 7 days): tolerable
window from the effective dose to the intolerance dose ([1]; effective dose = dose corresponding to 50% TGI): greater than 15 times
